The record followed here is ChEMBL document CHEMBL1212771, “BEL-2, an extended-spectrum beta-lactamase with increased activity toward expanded-spectrum cephalosporins in Pseudomonas aeruginosa” (Antimicrob Agents Chemother, 2010).

In experiment [1] the test system is Escherichia coli. Put plainly: Antimicrobial activity against Escherichia coli TOP10 expressing recombinant beta-lactamase BEL-1 by solid agar dilution method. It is filed as functional. (In general: In agar dilution the substance is mixed into plates at graded concentrations.)
Experiment [2] concerns Pseudomonas aeruginosa. The experiment is described as follows: Antimicrobial activity against Pseudomonas aeruginosa 51170 expressing beta-lactamase BEL-1 by solid agar dilution method. The class given is functional.
The test system of experiment [3] is Escherichia coli. The experiment is described as follows: Antimicrobial activity against Escherichia coli TOP10 expressing recombinant beta-lactamase BEL-2 by solid agar dilution method. The class given is functional.
Experiment [4] deals with Pseudomonas aeruginosa. The experiment is described as follows: Antimicrobial activity against Pseudomonas aeruginosa 531 expressing beta-lactamase BEL-2 by solid agar dilution method. The class given is functional.
Experiment [5] deals with Escherichia coli. Put plainly: Antimicrobial activity against Escherichia coli TOP10 by solid agar dilution method. The class given is functional.
The subject of experiment [6] is Pseudomonas aeruginosa. The experiment is described as follows: Ratio of Km for Pseudomonas aeruginosa 51170 beta-lactamase BEL-1 to Km for Pseudomonas aeruginosa 531 beta-lactamase BEL-2.

Values after ≈ are worked out from the molar mass of the structure shown. Bounds are passed on as bounds.

As to `CO/N=C(\C(=O)N[C@@H]1C(=O)N2C(C(=O)O)=C(COC(N)=O)CS[C@H]12)c1ccco1` [CEFUROXIME], the MIC (in general, the least concentration at which growth counts as inhibited) in the experiment on Escherichia coli [1] was 128 µg/mL; in the experiment on Pseudomonas aeruginosa [2], more than 512 µg/mL; in the experiment on Escherichia coli [3], 32 µg/mL; against Pseudomonas aeruginosa [4], more than 512 µg/mL; against Escherichia coli [5] it was 2 µg/mL (≈ 4.71 µM). Further, in the experiment on Pseudomonas aeruginosa [6], the Ratio worked out at 300.

Consider `CCN1CCN(C(=O)N[C@@H](C(=O)N[C@@H]2C(=O)N3[C@@H]2SC(C)(C)[C@@H]3C(=O)O)c2ccccc2)C(=O)C1=O` [PIPERACILLIN], for which the MIC in the experiment on Escherichia coli [1] came to 128 µg/mL; with Pseudomonas aeruginosa [2], 16 µg/mL (≈ 30.9 µM); with Escherichia coli [3] it was 32 µg/mL; against Pseudomonas aeruginosa [4] it was 16 µg/mL (≈ 30.9 µM); in the experiment with Escherichia coli [5], 1 µg/mL (≈ 1.93 µM).

In the case of `CO[C@@]1(NC(=O)Cc2cccs2)C(=O)N2C(C(=O)O)=C(COC(N)=O)CS[C@@H]21` [CEFOXITIN], the MIC in the experiment with Escherichia coli [1] came to 2 µg/mL; against Pseudomonas aeruginosa [2], 512 µg/mL (≈ 1200 µM); in the experiment with Escherichia coli [3] it was 2 µg/mL; against Pseudomonas aeruginosa [4], 512 µg/mL (≈ 1200 µM); in the experiment on Escherichia coli [5], 2 µg/mL (≈ 4.68 µM).

Turning to `CO/N=C(\C(=O)N[C@@H]1C(=O)N2C(C(=O)[O-])=C(C[n+]3cccc4c3CCC4)CS[C@H]12)c1csc(N)n1` [CEFPIROME], the minimum inhibitory concentration (MIC) in the experiment with Escherichia coli [1] turned out to be 0.25 µg/mL; with Pseudomonas aeruginosa [2] it was 16 µg/mL (≈ 31.1 µM); in the experiment with Escherichia coli [3], 0.5 µg/mL; in the experiment with Pseudomonas aeruginosa [4] it was 64 µg/mL (≈ 124 µM); against Escherichia coli [5], 0.06 µg/mL (≈ 0.117 µM).

With `CO/N=C(\C(=O)N[C@@H]1C(=O)N2C(C(=O)[O-])=C(C[N+]3(C)CCCC3)CS[C@H]12)c1csc(N)n1`, the minimal inhibitory concentration (MIC) with Escherichia coli [1] came to 0.25 µg/mL; against Pseudomonas aeruginosa [2] it was 4 µg/mL (≈ 8.32 µM); in the experiment with Escherichia coli [3], 1 µg/mL; against Pseudomonas aeruginosa [4] it was 16 µg/mL (≈ 33.3 µM).

Regarding `C[C@@H](O)[C@H]1C(=O)N2C(C(=O)O)=C(SCCNC=N)C[C@H]12` [IMIPENEM ANHYDROUS], the minimal inhibitory concentration (MIC) with Pseudomonas aeruginosa [4] amounted to 1 µg/mL (≈ 3.34 µM).

For the molecule `CC(=O)OCC1=C(C(=O)O)N2C(=O)[C@@H](NC(=O)Cc3cccs3)[C@H]2SC1` [CEPHALOTHIN], the minimal inhibitory concentration (MIC) in the experiment with Escherichia coli [1] is 256 µg/mL; in the experiment with Pseudomonas aeruginosa [2] it was more than 512 µg/mL; in the experiment with Escherichia coli [3], 256 µg/mL; against Pseudomonas aeruginosa [4], more than 512 µg/mL; in the experiment with Escherichia coli [5] it was 2 µg/mL (≈ 5.04 µM).
